Measured values published in patent US6573218B1, “Fused-benzene derivatives useful as herbicides” (Ishihara Sangyo Kaisha, Ltd., priority 1998, dated 2003).

What was measured:
Format in all cases: in vivo
[1] = test system: velvetleaf (Abutilon theophrasti, ABUTH); assay: Pre-emerge greenhouse herbicide test; settings: 250 g ai/ha, 14 days after application, scale 0-100 (0 no damage, 100 complete death)
Text: (§1) A standard greenhouse herbicide activity screening system was used to evaluate the herbicidal efficacy and crop safety of these test compounds. Seven broadleaf weed species including redroot pigweed (Amaranthus retroflexus, AMARE), velvetleaf (Abutilon theophrasti, ABUTH), sicklepod (Cassia obtusifolia, CASOB), ivyleaf morningglory (Ipomoea hederacea, IPOHE), lambsquarters (Chenopodium album, CHEAL), common ragweed (Ambrosia artemisiifolia L., AMBEL), and cocklebur (Xanthium strumarium, XANST) were used as test species. Four grass weed species including green foxtail (Setaria viridis, SETVI), barnyardgrass (Echinochloa crus-galli, ECHCG), johnsongrass (Sorghum halepense, SORHA), and large crabgrass (Digitaria sanguinalis, DIGSA) were also used. In addition, three crop species, field corn (Zea mays L., var. Dekalb 527, CORN), soybean (Glycine max L., var. Pella 86, SOY), and upland rice (Ory0a sp., var.Tebonnet, RICE) were included.
(§2) All plants were grown in 10 cm square plastic pots which were filled with a sandy loam soil mix. For pre-emerge tests, seeds were planted one day prior to application of the test compounds. For post-emerge tests, seeds were planted 8-21 days prior to the test to allow emergence and good foliage development prior to application of the test substances. At the time of the post-emerge application, plants of all species were usually at the 2-3 leaf stage of development.
(§3) All test compounds were dissolved in acetone and applied to the test units in a volume of 187 l/ha. Test materials were applied at rates ranging from 15 g ai/ha to 1000 g ai/ha using a track sprayer equipped with a TJ8001E even flow flat fan spray nozzle. Plants were arranged on a shelf so that the top of the canopy (post-emerge) or top of the soil surface (pre-emerge) was 40-45 cm below the nozzle. Pressurized air was used to force the test solution through the nozzle as it was mechanically advanced over the top of all test plants/pots. This application simulates a typical commercial field herbicide application.
(§4) In the post-emerge test, a commercial non-ionic surfactant was also included (0.25% v/v) to enhance wetting of the leaf surfaces of target plants. Immediately after application, test units of the pre-emerge applications were watered at the soil surface to incorporate the test materials.
(§5) At 14 days after application of the test materials, phytotoxicity ratings were recorded. A rating scale of 0-100 was used as previously described in Research Methods in Weed Science, 2nd edition, B. Truelove, Ed., Southern Weed Science Society, Auburn University, Auburn, Ala., 1977. Briefly, “0” corresponds to no damage and “100” corresponds to complete death of all plants in the test unit. This scale was used both to determine efficacy against weed species and damage to crop species. Herbicide activity data for various compounds of this invention, which are shown by compound No. in Tables 1-14, are shown in Tables 16 and 17.

[2] = test system: large crabgrass (Digitaria sanguinalis, DIGSA); assay: Pre-emerge greenhouse herbicide test; settings: 250 g ai/ha, 14 days after application, scale 0-100 (0 no damage, 100 complete death)
Text: as §1, §2, §3, §4, §5

[3] = test system: green foxtail (Setaria viridis, SETVI); assay: Pre-emerge greenhouse herbicide test; settings: 250 g ai/ha, 14 days after application, scale 0-100 (0 no damage, 100 complete death)
Text: as §1, §2, §3, §4, §5

[4] = test system: sicklepod (Cassia obtusifolia, CASOB); assay: Pre-emerge greenhouse herbicide test; settings: 250 g ai/ha, 14 days after application, scale 0-100 (0 no damage, 100 complete death)
Text: as §1, §2, §3, §4, §5

[5] = test system: redroot pigweed (Amaranthus retroflexus, AMARE); assay: Pre-emerge greenhouse herbicide test; settings: 250 g ai/ha, 14 days after application, scale 0-100 (0 no damage, 100 complete death)
Text: as §1, §2, §3, §4, §5

[6] = test system: ivyleaf morningglory (Ipomoea hederacea, IPOHE); assay: Pre-emerge greenhouse herbicide test; settings: 250 g ai/ha, 14 days after application, scale 0-100 (0 no damage, 100 complete death)
Text: as §1, §2, §3, §4, §5

[7] = test system: barnyardgrass (Echinochloa crus-galli, ECHCG); assay: Pre-emerge greenhouse herbicide test; settings: 250 g ai/ha, 14 days after application, scale 0-100 (0 no damage, 100 complete death)
Text: as §1, §2, §3, §4, §5

[8] = test system: lambsquarters (Chenopodium album, CHEAL); assay: Pre-emerge greenhouse herbicide test; settings: 250 g ai/ha, 14 days after application, scale 0-100 (0 no damage, 100 complete death)
Text: as §1, §2, §3, §4, §5

[9] = test system: soybean (Glycine max L., var. Pella 86, SOY); assay: Pre-emerge greenhouse crop damage test; settings: pre-emerge, 250 g ai/ha, 14 days after application, scale 0-100 (0 no damage, 100 complete death)
Text: as §1, §2, §3, §4, §5

[10] = test system: field corn (Zea mays L., var. Dekalb 527, CORN); assay: Pre-emerge greenhouse crop damage test; settings: pre-emerge, 250 g ai/ha, 14 days after application, scale 0-100 (0 no damage, 100 complete death)
Text: as §1, §2, §3, §4, §5

[11] = test system: upland rice (Ory0a sp., var.Tebonnet, RICE); assay: Pre-emerge greenhouse crop damage test; settings: pre-emerge, 250 g ai/ha, 14 days after application, scale 0-100 (0 no damage, 100 complete death)
Text: as §1, §2, §3, §4, §5

[12] = test system: velvetleaf (Abutilon theophrasti, ABUTH); assay: Post-emerge greenhouse herbicide test; settings: 250 g ai/ha, 14 days after application
Text: as §1, §2, §3, §4, §5

[13] = test system: large crabgrass (Digitaria sanguinalis, DIGSA); assay: Post-emerge greenhouse herbicide test; settings: 250 g ai/ha, 14 days after application
Text: as §1, §2, §3, §4, §5

[14] = test system: green foxtail (Setaria viridis, SETVI); assay: Post-emerge greenhouse herbicide test; settings: 250 g ai/ha, 14 days after application
Text: as §1, §2, §3, §4, §5

[15] = test system: sicklepod (Cassia obtusifolia, CASOB); assay: Post-emerge greenhouse herbicide test; settings: 250 g ai/ha, 14 days after application
Text: as §1, §2, §3, §4, §5

[16] = test system: redroot pigweed (Amaranthus retroflexus, AMARE); assay: Post-emerge greenhouse herbicide test; settings: 250 g ai/ha, 14 days after application
Text: as §1, §2, §3, §4, §5

[17] = test system: ivyleaf morningglory (Ipomoea hederacea, IPOHE); assay: Post-emerge greenhouse herbicide test; settings: 250 g ai/ha, 14 days after application
Text: as §1, §2, §3, §4, §5

[18] = test system: johnsongrass (Sorghum halepense, SORHA); assay: Post-emerge greenhouse herbicide test; settings: 250 g ai/ha, 14 days after application
Text: as §1, §2, §3, §4, §5

[19] = test system: barnyardgrass (Echinochloa crus-galli, ECHCG); assay: Post-emerge greenhouse herbicide test; settings: 250 g ai/ha, 14 days after application
Text: as §1, §2, §3, §4, §5

[20] = test system: lambsquarters (Chenopodium album, CHEAL); assay: Post-emerge greenhouse herbicide test; settings: 250 g ai/ha, 14 days after application
Text: as §1, §2, §3, §4, §5

[21] = test system: soybean (Glycine max L., var. Pella 86, SOY); assay: Post-emerge greenhouse crop damage test; settings: in vivo
Text: as §1, §2, §3, §4, §5

[22] = test system: field corn (Zea mays L., var. Dekalb 527, CORN); assay: Post-emerge greenhouse crop damage test; settings: 250 g ai/ha, post-emerge, 14 days after application
Text: as §1, §2, §3, §4, §5

[23] = test system: upland rice (Ory0a sp., var.Tebonnet, RICE); assay: Post-emerge greenhouse crop damage test; settings: 250 g ai/ha, post-emerge, 14 days after application
Text: as §1, §2, §3, §4, §5

## CCc1nc2c(N3C(=O)C4CCCCN4C3=S)c(F)cc(Cl)c2o1 (single isomer, unassigned) [Compound 7-5, 8-(7-Chloro-2-ethyl-5-fluorobenzoxazol-4-yl)-1,8-diazobicyclo[4,3,0]nonane-7-one-9-thione]
[1]
  Pre-emerge Herbicidal Activity ABUTH (phytotoxicity rating): 30
[2]
  Pre-emerge Herbicidal Activity DIGSA (phytotoxicity rating): 0
[3]
  Pre-emerge Herbicidal Activity SETVI (phytotoxicity rating): 0
[4]
  Pre-emerge Herbicidal Activity CASOB (phytotoxicity rating): 0
[5]
  Pre-emerge Herbicidal Activity AMARE (phytotoxicity rating): 50
[6]
  Pre-emerge Herbicidal Activity IPOHE (phytotoxicity rating): 0
[7]
  Pre-emerge Herbicidal Activity ECHCG (phytotoxicity rating): 0
[8]
  Pre-emerge Herbicidal Activity CHEAL (phytotoxicity rating): 60
[9]
  Pre-emerge Herbicidal Activity SOY (crop damage rating): 0
[10]
  Pre-emerge Herbicidal Activity CORN (crop damage rating): 0
[11]
  Pre-emerge Herbicidal Activity RICE (crop damage rating): 0
[12]
  Post-emerge Herbicidal Activity ABUTH (phytotoxicity rating 0-100): 100
[13]
  Post-emerge Herbicidal Activity DIGSA (phytotoxicity rating 0-100): 10
[14]
  Post-emerge Herbicidal Activity SETVI (phytotoxicity rating 0-100): 60
[15]
  Post-emerge Herbicidal Activity CASOB (phytotoxicity rating 0-100): 100
[16]
  Post-emerge Herbicidal Activity AMARE (phytotoxicity rating 0-100): 100
[17]
  Post-emerge Herbicidal Activity IPOHE (phytotoxicity rating 0-100): 100
[18]
  Post-emerge Herbicidal Activity SORHA (phytotoxicity rating 0-100): 0
[19]
  Post-emerge Herbicidal Activity ECHCG (phytotoxicity rating 0-100): 0
[20]
  Post-emerge Herbicidal Activity CHEAL (phytotoxicity rating 0-100): 100
[21]
  Post-emerge crop damage SOY (phytotoxicity rating 0-100): 80
[22]
  Post-emerge crop damage CORN (phytotoxicity rating 0-100): 20
[23]
  Post-emerge crop damage RICE (phytotoxicity rating 0-100): 10
